Experimental data taken from ChEMBL document CHEMBL5252515, “Discovery of 6-Amino-2-{[(1S)-1-methylbutyl]oxy}-9-[5-(1-piperidinyl)pentyl]-7,9-dihydro-8H-purin-8-one (GSK2245035), a Highly Potent and Selective Intranasal Toll-Like Receptor 7 Agonist for the Treatment of Asthma” (J Med Chem, 2016).
Calls of active or inactive are those of the source. The rule behind the calls is not given here.

Assays:
[1] = Oral bioavailability in rat; format: ADME, organism-based; conditions: in vivo
[2] = target: T1, Toll-like receptor 7 (Macaca fascicularis) (UniProt B3Y652); test: In vivo target occupancy at TLR7 in cynomolgus monkey assessed as fold increase in OAS3 mRNA expression in nasal scrape at 3 ng/kg administered intranasally incubated for 24 hrs by TaqMan analysis (reference value: 0.9); format: functional
T1 sequence (whole entry): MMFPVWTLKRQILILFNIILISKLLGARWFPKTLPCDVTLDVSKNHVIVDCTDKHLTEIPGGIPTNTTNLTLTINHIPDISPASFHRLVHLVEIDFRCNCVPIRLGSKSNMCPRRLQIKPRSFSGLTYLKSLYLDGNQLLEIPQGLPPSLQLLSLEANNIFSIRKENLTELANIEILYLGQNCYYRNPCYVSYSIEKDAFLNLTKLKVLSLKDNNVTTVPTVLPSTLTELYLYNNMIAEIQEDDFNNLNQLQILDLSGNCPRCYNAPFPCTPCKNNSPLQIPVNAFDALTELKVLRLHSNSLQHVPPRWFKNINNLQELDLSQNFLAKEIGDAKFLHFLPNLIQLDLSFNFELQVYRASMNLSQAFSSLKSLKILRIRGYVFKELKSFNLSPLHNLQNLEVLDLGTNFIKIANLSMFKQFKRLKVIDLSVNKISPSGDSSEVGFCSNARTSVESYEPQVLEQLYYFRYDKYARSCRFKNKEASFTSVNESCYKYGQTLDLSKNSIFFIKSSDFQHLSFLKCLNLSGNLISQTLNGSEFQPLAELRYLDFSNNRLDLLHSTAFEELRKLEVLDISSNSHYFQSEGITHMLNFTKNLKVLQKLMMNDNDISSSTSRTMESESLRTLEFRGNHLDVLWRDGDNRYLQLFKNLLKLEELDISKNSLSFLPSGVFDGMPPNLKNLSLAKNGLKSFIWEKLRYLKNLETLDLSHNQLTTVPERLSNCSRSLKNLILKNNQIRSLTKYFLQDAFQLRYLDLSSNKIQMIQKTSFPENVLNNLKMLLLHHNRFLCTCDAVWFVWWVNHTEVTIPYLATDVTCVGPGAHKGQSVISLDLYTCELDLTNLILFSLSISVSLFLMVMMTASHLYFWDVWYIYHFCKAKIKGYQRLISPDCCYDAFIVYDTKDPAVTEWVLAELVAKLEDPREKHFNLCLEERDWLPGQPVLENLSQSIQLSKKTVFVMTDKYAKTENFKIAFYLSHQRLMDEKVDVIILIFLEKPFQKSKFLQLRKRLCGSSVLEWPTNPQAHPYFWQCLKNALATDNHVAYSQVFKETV

Cynomolgus monkey = test: Increase in TNF-alpha level in cynomolgus monkey serum at 3000 ng/kg, administered intranasally after 6 hrs; format: functional, organism-based; conditions: Macaca fascicularis
[3] = Selectivity ratio of pEC50 for agonist activity at TLR7 in human whole blood to pEC50 for agonist activity at TLR7 in BALB/c mouse splenocytes; format: cell-based
Toll-like receptor 7 = target: T2, Toll-like receptor 7 (Homo sapiens, UniProt Q9NYK1); test: Agonist activity at TLR7 in human U2OS cells; format: cell-based
T2 sequence (Q9NYK1 whole entry): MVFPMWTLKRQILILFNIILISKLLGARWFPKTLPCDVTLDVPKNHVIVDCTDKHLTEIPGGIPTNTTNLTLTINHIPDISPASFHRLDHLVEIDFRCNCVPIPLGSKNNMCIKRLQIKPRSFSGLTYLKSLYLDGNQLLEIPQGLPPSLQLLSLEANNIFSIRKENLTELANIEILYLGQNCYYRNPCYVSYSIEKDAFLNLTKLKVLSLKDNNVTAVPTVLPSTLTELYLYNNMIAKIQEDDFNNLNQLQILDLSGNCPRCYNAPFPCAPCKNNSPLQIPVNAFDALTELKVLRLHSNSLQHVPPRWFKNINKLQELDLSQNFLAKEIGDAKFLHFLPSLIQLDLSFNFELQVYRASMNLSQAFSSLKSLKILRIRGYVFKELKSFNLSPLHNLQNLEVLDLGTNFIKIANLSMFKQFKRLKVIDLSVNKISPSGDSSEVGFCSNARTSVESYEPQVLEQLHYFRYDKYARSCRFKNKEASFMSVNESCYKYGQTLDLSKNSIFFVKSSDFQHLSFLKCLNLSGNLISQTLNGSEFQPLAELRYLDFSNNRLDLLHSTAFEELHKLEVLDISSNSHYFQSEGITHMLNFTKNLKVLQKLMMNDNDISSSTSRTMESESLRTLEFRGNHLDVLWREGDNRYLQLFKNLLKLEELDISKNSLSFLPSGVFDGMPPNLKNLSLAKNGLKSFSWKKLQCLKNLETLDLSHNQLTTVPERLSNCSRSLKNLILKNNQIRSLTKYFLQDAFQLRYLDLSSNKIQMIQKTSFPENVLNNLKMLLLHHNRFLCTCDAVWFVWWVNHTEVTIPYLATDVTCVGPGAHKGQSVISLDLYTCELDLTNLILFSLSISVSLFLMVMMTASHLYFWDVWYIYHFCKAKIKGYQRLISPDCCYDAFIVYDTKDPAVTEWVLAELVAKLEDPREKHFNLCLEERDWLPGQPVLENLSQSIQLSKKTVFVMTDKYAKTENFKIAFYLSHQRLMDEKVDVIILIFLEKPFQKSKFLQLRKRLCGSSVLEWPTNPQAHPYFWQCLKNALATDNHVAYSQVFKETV

[4] = Systemic clearance in mouse; format: ADME, organism-based; conditions: in vivo
[5] = target: T1, Toll-like receptor 7 (Macaca fascicularis); test: In vivo target occupancy at TLR7 in cynomolgus monkey assessed as fold increase in OAS2 mRNA expression in nasal scrape at 3 ng/kg administered intranasally incubated for 24 hrs by TaqMan analysis (reference value: 1); format: functional

bioavailability [1]: 1%
fold change (FC) [2]: 86.3
EC50 (Toll-like receptor 7): 2000 nM
clearance [4]: 107 mL/min/kg
fold change (FC) [5]: 128
SMILES: CCC[C@H](C)Oc1nc(N)c2[nH]c(=O)n(CCCCCN3CCCCC3)c2n1 [GSK-2245035]
Activity (Cynomolgus monkey): inactive
Selectivity ratio [3]: 10
